{"source": "patent EP1285920A1", "about": "“C10 Ester sustituted taxanes as antitumor agents” (Florida State University Research Foundation, Inc., priority 2001, dated 2003)", "key": {"HCT116": {"tested_on": "HCT116", "experiment": "In Vitro cytotoxicity measured by the cell colony formation assay", "assay_type": "cell-based, human", "settings": "Homo sapiens, HCT-116; read-out: IN VITRO ID 50 HCT116", "outline": "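Four hundred cells per dish in McCoy's 5a medium with 10% FBS were allowed to attach for 5 h at 37 °C. They were then exposed to compound for 72 h at 37 °C, added as a 10× stock made fresh in medium. After HBSS rinsing and refeeding, colonies were counted after 7 days.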"}, "[1]": {"tested_on": "Panc-1 pancreatic carcinoma", "experiment": "In vivo evaluation against Panc-1 human pancreatic carcinoma (Example 17)"}, "VM46 colon carcinoma": {"tested_on": "VM46 colon carcinoma", "experimental": "Dosing was initiated on Day 1. […] Taxotere was given i.v. at a dose of 70 mg/kg on a qd x 1 schedule."}, "DU145 prostate carcinoma": {"tested_on": "DU145 prostate carcinoma", "text": "Dosing was initiated on Day 1. […] Treatment groups are detailed in Table 5."}, "A375 melanoma": {"tested_on": "A375 melanoma", "experimental": "Dosing was initiated on Day 1. […] Taxotere was given i.v. on a qd x 1 schedule at a dose of 70 mg/kg. […] The study was terminated on Day 60. Treatment groups are detailed in Table 9."}, "[2]": {"settings": "Panc-1 (Example 17), i.v. qd x 1, six mice per group"}, "[3]": {"settings": "number of mice, i.v. qd x 1, mg/kg: Taxol 36, 0499 77, 0503 72.6, 0670 123.1, 0706 107.6, 0838 72.6, 0854 76.9, 6 mice/group, Day 60"}, "[4]": {"settings": "number of mice, i.v. qd x 1, mg/kg: Taxol 24, 0499 77, 0503 72.6, 0670 123.1, 0706 107.6, 0838 72.6, 0854 46.6, 0983 67.4, Taxotere 70, 6 mice/group, Day 64"}, "[5]": {"settings": "number of 5 mice, i.v. qd x 1 at estimated MTD (Taxol 24 mg/kg split), Day 91"}, "[6]": {"settings": "number of mice, i.v. qd x 1 at estimated MTD (Taxol 24 mg/kg, Taxotere 70 mg/kg), 6 mice/group (Taxotere 7), Day 60"}}, "note": "Where two headings read alike, the source gives them in different places.", "data": [{"compound": "CCC(=O)O[C@H]1C(=O)[C@@]2(C)[C@H]([C@H](OC(=O)c3ccccc3)[C@]3(O)C[C@H](OC(=O)[C@H](O)[C@H](C=C(C)C)NC(=O)OC(C)(C)C)C(C)=C1C3(C)C)[C@]1(OC(C)=O)CO[C@@H]1C[C@@H]2O", "note": "[Compound 0499]", "values": [{"measurement": "IC50", "setting": "HCT116", "result": "< 1", "unit": "nM"}, {"measurement": "MDS", "setting": "[1]; Panc-1 (Example 17), i.v. qd x 1 (compounds estimated MTD; Taxol 36 mg/kg split), days until tumor 1.5 g, ended Day 60", "result": "47 to 56", "unit": "days"}, {"measurement": "Partial Response", "setting": "[1]; [2]", "result": 1}, {"measurement": "Stable Disease", "setting": "[1]; [2]", "result": "one"}, {"measurement": "complete responses", "setting": "[1]; [2]", "result": 2}, {"measurement": "MDS (n)", "setting": "[1]; mean days of survival until neoplasm reached 1.5 g, i.v. qd x 1, mg/kg: Taxol 36, 0499 77, 0503 72.6, 0670 123.1, 0706 107.6, 0838 72.6, 0854 76.9, 6 mice/group, terminated Day 60", "result": "56.1 ± 1.0 (2) days"}, {"measurement": "Toxic Deaths", "setting": "[1]; number of mice, i.v. qd x 1, mg/kg: Taxol 36, 0499 77, 0503 72.6, 0670 123.1, 0706 107.6, 0838 72.6, 0854 76.9, 6 mice/group", "result": 0}, {"measurement": "Complete Response", "setting": "[1]; [3]", "result": 2}, {"measurement": "Partial Response", "setting": "[1]; [3]", "result": 1}, {"measurement": "Stable Disease", "setting": "[1]; [3]", "result": 1}, {"measurement": "Survivors", "setting": "[1]; [3]", "result": 4}, {"measurement": "Mean Score", "setting": "[1]; tumor scoring system, i.v. qd x 1, mg/kg: Taxol 36, 0499 77, 0503 72.6, 0670 123.1, 0706 107.6, 0838 72.6, 0854 76.9, 6 mice/group", "result": "7.4 ± 1.4"}, {"measurement": "tolerability", "setting": "VM46 colon carcinoma; VM46, i.v. qd x 1", "result": "well-tolerated"}, {"measurement": "Toxic Deaths", "setting": "VM46 colon carcinoma; VM46, i.v. qd x 1, six mice per group", "result": "no toxic deaths"}, {"measurement": "Mean Score", "setting": "VM46 colon carcinoma; iv", "result": "2 ± 0.3"}, {"measurement": "MDS (n)", "setting": "VM46 colon carcinoma; iv, 1536 h", "result": "41.9 ± 4.2 (5) days"}, {"measurement": "Toxic Deaths", "setting": "VM46 colon carcinoma; number of mice, i.v. qd x 1, mg/kg: Taxol 24, 0499 77, 0503 72.6, 0670 123.1, 0706 107.6, 0838 72.6, 0854 46.6, 0983 67.4, Taxotere 70, 6 mice/group", "result": 0}, {"measurement": "Complete Response", "setting": "VM46 colon carcinoma; [4]", "result": 0}, {"measurement": "Partial Response", "setting": "VM46 colon carcinoma; [4]", "result": 0}, {"measurement": "Stable Disease", "setting": "VM46 colon carcinoma; [4]", "result": 1}, {"measurement": "Survivors", "setting": "VM46 colon carcinoma; [4]", "result": 1}, {"measurement": "Mean Score", "setting": "DU145 prostate carcinoma; i.v. qd x 1 at estimated MTD (Taxol 24 mg/kg split), 5 mice/group, Day 91", "result": "4.4 ± 1.4"}, {"measurement": "MDS (n)", "setting": "DU145 prostate carcinoma; mean days of survival until tumor reached 1.5 g, i.v. qd x 1 at estimated MTD (Taxol 24 mg/kg as two split doses), 5 mice/group, study ended Day 91", "result": "67.2 ± 8.3 (3) days"}, {"measurement": "Stable Disease", "setting": "DU145 prostate carcinoma; number of 5 mice, tumor did not reach 1.5 g by end of study, i.v. qd x 1 at estimated MTD (Taxol 24 mg/kg split), Day 91", "result": 1}, {"measurement": "Toxic Deaths", "setting": "DU145 prostate carcinoma; number of 5 mice, i.v. qd x 1 at estimated MTD (Taxol 24 mg/kg as two split doses), Day 91", "result": 0}, {"measurement": "Complete Response", "setting": "DU145 prostate carcinoma; [5]", "result": 1}, {"measurement": "Partial Response", "setting": "DU145 prostate carcinoma; [5]", "result": 0}, {"measurement": "Survivors", "setting": "DU145 prostate carcinoma; [5]", "result": 2}, {"measurement": "Stable Disease", "setting": "A375 melanoma; A375, i.v. qd x 1, six mice per group", "result": "one"}, {"measurement": "MDS (n)", "setting": "A375 melanoma; mean days of survival until neoplasm reached 2.0 g, i.v. qd x 1 at estimated MTD (Taxol 24 mg/kg, Taxotere 70 mg/kg), 6 mice/group (Taxotere 7), terminated Day 60", "result": "30.5 ± 3.5 (3) days"}, {"measurement": "Toxic Deaths", "setting": "A375 melanoma; number of mice, i.v. qd x 1 at estimated MTD (Taxol 24 mg/kg, Taxotere 70 mg/kg), 6 mice/group (Taxotere 7)", "result": 2}, {"measurement": "Complete Response", "setting": "A375 melanoma; [6]", "result": 0}, {"measurement": "Partial Response", "setting": "A375 melanoma; [6]", "result": 0}, {"measurement": "Stable Disease", "setting": "A375 melanoma; [6]", "result": 1}, {"measurement": "Survivors", "setting": "A375 melanoma; [6]", "result": 1}, {"measurement": "Mean Score", "setting": "A375 melanoma; tumor scoring system, i.v. qd x 1 at estimated MTD (Taxol 24 mg/kg, Taxotere 70 mg/kg), 6 mice/group (Taxotere 7)", "result": "2.3 ± 0.9"}]}]}
